Laboratory results from patent US8481536B2, “Benzotriazine inhibitors of kinases” (TargeGen, Inc., priority 2004, dated 2013).

Key:
Format in all cases: biochemical
Recombinant human c-Src = Recombinant human c-Src (Homo sapiens (Human), UniProt P12931); experiment: Src kinase inhibition in vitro (luciferase-based residual ATP, KinaseGlo); conditions: ATP 3 μM, PTK2 substrate, 90 minutes at room temperature
Protocol: (§1) The ability of compounds of the present invention to inhibit the activity of three groups of kinases was tested. Kinases tested included the src family (primarily src and yes), some angiogenic growth factor receptors (Fgfr1, Vegfr, and Pdgfrβ) and the ephrin, EphB4. All kinase reactions were conducted in 96-well plates with a final reaction volume of 50 ul.
(§2) After reacting for about 90 minutes at room temperature, residual ATP was determined using a luciferase-based assay (KinaseGlo, Promega Corp.) as a measure of kinase activity. Data from four wells were then averaged and used to determine IC50 values for the test compounds (Prism software package, GraphPad Software, San Diego Calif.).
(§3) The test results for inhibition of Src kinase are presented in Table 1, and the test results for inhibition of some other kinases (i.e., Yes, EphB4, and Pdgfrβ) are presented in Table 2.

Pdgfrβ = Pdgfrβ (Homo sapiens (Human), UniProt P09619); experiment: Pdgfrβ kinase inhibition in vitro (luciferase-based residual ATP); conditions: 500 nM ATP, PTK2 peptide, 60 minutes at 37 C; read-out: PDGFR IC50
Protocol: as §1
Pdgfrβ (0.16 ug/well, Panvera/Invitrogen) 500 nM ATP and the PTK2 peptide (700 uM) were combined with compound and reaction buffer as noted above for src. The reaction was incubated for 60 minutes at 37 C, and the residual ATP concentration was determined using the luciferase-based technique also noted above.
as §3

EphB4 = EphB4 (Homo sapiens (Human), UniProt P54760); experiment: EphB4 kinase inhibition in vitro (luciferase-based residual ATP); conditions: 6 uM ATP, poly(glu4tyr), 60 minutes at 37 C
Protocol: as §1, §3

Recombinant human Yes = Recombinant human Yes (Homo sapiens (Human), UniProt P07947); experiment: Yes kinase inhibition in vitro (luciferase-based residual ATP, KinaseGlo); conditions: ATP 3 μM, PTK2 substrate, 90 minutes at room temperature
Protocol: as §1, §2, §3

Sequence of Recombinant human c-Src (P12931 whole entry, looked up): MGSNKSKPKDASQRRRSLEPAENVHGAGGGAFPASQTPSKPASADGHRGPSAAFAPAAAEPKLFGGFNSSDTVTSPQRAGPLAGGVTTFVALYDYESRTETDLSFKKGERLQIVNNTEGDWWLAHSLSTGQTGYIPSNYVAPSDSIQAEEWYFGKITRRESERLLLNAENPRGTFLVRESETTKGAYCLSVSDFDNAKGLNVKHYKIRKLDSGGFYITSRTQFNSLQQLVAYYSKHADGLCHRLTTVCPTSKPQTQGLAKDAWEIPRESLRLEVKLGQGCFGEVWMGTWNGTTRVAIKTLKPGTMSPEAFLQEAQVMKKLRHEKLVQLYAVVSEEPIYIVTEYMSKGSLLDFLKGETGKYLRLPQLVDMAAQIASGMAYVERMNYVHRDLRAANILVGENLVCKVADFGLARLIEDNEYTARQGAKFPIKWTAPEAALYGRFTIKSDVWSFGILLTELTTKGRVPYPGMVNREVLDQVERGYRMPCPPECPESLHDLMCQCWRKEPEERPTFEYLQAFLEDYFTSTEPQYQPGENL
Sequence of Pdgfrβ (P09619 33-1106): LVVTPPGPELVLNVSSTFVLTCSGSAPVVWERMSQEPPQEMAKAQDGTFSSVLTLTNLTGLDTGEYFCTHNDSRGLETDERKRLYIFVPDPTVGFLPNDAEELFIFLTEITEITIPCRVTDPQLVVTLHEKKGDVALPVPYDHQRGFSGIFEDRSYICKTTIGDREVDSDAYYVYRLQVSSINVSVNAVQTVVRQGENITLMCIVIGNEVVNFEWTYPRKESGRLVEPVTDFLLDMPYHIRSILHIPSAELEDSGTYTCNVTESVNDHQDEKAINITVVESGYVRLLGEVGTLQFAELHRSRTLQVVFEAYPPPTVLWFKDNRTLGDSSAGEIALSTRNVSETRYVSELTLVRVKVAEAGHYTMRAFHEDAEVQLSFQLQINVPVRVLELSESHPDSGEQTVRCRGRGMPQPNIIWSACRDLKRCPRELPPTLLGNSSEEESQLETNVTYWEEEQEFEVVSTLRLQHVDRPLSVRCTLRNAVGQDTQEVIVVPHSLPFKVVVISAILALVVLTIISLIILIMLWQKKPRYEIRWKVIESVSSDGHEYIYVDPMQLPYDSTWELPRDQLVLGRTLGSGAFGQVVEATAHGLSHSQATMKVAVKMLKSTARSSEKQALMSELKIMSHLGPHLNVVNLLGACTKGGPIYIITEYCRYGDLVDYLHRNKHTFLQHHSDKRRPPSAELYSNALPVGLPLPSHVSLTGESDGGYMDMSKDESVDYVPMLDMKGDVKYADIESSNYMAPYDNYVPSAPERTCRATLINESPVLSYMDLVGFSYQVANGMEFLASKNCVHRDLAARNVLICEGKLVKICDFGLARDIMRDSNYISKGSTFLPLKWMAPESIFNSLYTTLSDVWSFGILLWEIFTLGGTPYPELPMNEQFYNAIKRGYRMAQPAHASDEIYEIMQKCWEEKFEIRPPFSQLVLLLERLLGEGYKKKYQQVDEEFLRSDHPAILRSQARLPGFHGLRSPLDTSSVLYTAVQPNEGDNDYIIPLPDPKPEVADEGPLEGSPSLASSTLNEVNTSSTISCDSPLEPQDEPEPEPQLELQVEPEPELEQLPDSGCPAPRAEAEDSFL
Sequence of Recombinant human Yes (P07947 whole entry): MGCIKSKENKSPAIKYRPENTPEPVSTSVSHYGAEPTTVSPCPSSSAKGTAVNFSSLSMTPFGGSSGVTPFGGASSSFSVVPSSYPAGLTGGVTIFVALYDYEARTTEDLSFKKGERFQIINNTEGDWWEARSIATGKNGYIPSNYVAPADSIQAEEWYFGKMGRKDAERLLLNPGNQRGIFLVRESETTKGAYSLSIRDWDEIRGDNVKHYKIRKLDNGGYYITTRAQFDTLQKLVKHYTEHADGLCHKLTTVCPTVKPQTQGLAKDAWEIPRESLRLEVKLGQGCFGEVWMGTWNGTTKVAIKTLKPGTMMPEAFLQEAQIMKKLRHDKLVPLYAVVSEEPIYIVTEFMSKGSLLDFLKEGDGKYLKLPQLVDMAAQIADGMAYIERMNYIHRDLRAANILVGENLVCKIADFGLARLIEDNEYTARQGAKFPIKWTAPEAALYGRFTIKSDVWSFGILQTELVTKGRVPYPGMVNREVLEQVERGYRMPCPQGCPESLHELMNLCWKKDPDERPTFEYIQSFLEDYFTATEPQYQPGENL
Sequence of EphB4 (P54760 16-987): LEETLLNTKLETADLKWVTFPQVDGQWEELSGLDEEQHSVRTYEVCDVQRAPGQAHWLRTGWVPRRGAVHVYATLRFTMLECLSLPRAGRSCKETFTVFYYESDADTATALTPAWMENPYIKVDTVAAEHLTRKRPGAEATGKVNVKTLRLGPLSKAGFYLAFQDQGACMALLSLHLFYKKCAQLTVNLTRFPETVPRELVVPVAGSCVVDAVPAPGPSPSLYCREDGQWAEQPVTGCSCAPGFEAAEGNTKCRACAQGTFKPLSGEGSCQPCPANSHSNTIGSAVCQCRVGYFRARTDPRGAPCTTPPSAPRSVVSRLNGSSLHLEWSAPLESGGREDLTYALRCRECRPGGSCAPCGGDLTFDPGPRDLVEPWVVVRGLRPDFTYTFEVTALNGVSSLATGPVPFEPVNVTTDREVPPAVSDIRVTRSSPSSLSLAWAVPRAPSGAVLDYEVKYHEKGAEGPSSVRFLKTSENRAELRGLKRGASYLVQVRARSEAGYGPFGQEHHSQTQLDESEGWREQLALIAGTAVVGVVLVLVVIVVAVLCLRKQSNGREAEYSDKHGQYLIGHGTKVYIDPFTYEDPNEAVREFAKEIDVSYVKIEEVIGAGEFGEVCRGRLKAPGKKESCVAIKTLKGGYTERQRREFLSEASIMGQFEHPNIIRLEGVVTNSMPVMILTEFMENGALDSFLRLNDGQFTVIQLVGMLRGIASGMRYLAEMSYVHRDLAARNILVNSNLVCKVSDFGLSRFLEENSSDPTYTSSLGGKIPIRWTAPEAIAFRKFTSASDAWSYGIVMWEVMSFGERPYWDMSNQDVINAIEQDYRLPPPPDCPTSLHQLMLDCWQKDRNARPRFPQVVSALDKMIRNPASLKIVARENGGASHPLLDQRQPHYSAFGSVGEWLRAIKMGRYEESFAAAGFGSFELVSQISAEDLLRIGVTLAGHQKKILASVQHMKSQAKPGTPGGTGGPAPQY

IC50 (Recombinant human c-Src) [nM]	IC50 (Pdgfrβ) [nM]	Structure (SMILES)	IC50 (EphB4) [nM]	IC50 (Recombinant human Yes) [nM]
20.4	15.7	Cc1cccc(C)c1-c1cc(NS(C)(=O)=O)c2nc(Nc3ccc(OCCN4CCCC4)cc3)nnc2c1 [N-{7-(2,6-dimethyl-phenyl)-3-[4-(2-pyrrolidin-1-yl-ethoxy)-phenylamino]-benzo[1,2,4]triazin-5-yl}-methanesulfonamide]	–	–
322	81.3	Cc1cccc(C)c1-c1cc(C)c2nc(Nc3cccc(S(=O)(=O)N4CCN(C)CC4)c3)nnc2c1 [[7-(2,6-dimethyl-phenyl)-5-methyl-benzo[1,2,4]triazin-3-yl]-[3-(4-methyl-piperazine-1-sulfonyl)-phenyl]-amine]	–	–
39.5	69.1	Cc1cccc(C)c1-c1cc(C)c2nc(Nc3cccc(OCCN4CCN(C)CC4)c3)nnc2c1 [[7-(2,6-dimethyl-phenyl)-5-methyl-benzo[1,2,4]triazin-3-yl]-{3-[2-(4-methyl-piperazin-1-yl)-ethoxy]-phenyl}-amine]	–	–

Structure (SMILES)	IC50 (Recombinant human c-Src) [nM]	IC50 (Pdgfrβ) [nM]	IC50 (EphB4) [nM]	IC50 (Recombinant human Yes) [nM]
Cc1cc(-c2cc(O)ccc2Cl)cc2nnc(Nc3ccc(OCCN4CCCC4)cc3)nc12 [[7-(2-chloro-5-hydroxy-phenyl)-5-methyl-benzo[1,2,4]triazin-3-yl]-[4-(2-pyrrolidine-1-yl-ethoxy)-phenyl]-amine]	1.6	1.1	15.9	0.5
